# Like-named read-outs stand apart in the source and are kept apart here.
# Legend:
# SF295 = assay: NCI-60 SRB screen, CNS cancer; format: cell-based, human; details: Homo sapiens
# HL-60(TB) = assay: NCI-60 SRB screen, leukemia; format: cell-based, human; details: Homo sapiens
# TK-10 = assay: NCI-60 SRB screen, renal cancer; format: cell-based, human; details: Homo sapiens
# [1] = system: NCI 60 human cancer cell line panel; assay: NCI 60 cell line screen (SRB), panel values; details: for CC50: read-out: Mean LC50; for IC (TGI (total growth inhibition)): read-out: Mean TGI
# MOLT-4 = assay: NCI-60 SRB screen, leukemia; format: cell-based, human; details: Homo sapiens
# T-47D = assay: NCI-60 SRB screen, breast cancer; format: cell-based, human; details: Homo sapiens, T47D, 48 h
# DU-145 = assay: NCI-60 SRB screen, prostate cancer; format: cell-based, human; details: Homo sapiens
# NCI/ADR-RES = assay: NCI-60 SRB screen, ovarian cancer; format: cell-based, human; details: Homo sapiens, 48 h
# SK-MEL-28 = assay: NCI-60 SRB screen, melanoma; format: cell-based, human; details: Homo sapiens
# K-562 = assay: NCI-60 SRB screen, leukemia; format: cell-based, human; details: Homo sapiens, K562, 48 h
# HS 578T = assay: NCI-60 SRB screen, breast cancer; format: cell-based; details: Homo sapiens, 48 h
# SK-OV-3 = assay: NCI-60 SRB screen, ovarian cancer; format: cell-based, human; details: Homo sapiens
# RPMI-8226 = assay: NCI-60 SRB screen, leukemia; format: cell-based, human; details: Homo sapiens
# SR = assay: NCI-60 SRB screen, leukemia; format: cell-based, human; details: Homo sapiens, 48 h
# SF539 = assay: NCI-60 SRB screen, CNS cancer; format: cell-based, human; details: Homo sapiens
# MDA-MB-231/ATCC = assay: NCI-60 SRB screen, breast cancer; format: cell-based, human; details: Homo sapiens; for IC50: read-out: Antiproliferative Activity IC50
# SN12C = assay: NCI-60 SRB screen, renal cancer; format: cell-based, human; details: Homo sapiens, 48 h
# NCI-H226 = assay: NCI-60 SRB screen, non-small cell lung cancer; format: cell-based; details: Homo sapiens
# [2] = system: purified bovine brain tubulin; assay: Tubulin polymerization assay (light scattering, BK006 kit); format: biochemical; details: compound at 10 μM; for Fold Reduction in Vmax: relative to vehicle
# In short: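 Compounds tested at 10 µM against vehicle (1% DMSO or EtOH) with bovine brain tubulin, 3 mg/mL, in pH 6.9 PIPES buffer containing 1 mM GTP and 10% glycerol, 37 °C. Light scattering at 340 nm tracked microtubule formation; average of two independent runs reported.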
# NCI-H332M = assay: NCI-60 SRB screen, non-small cell lung cancer; format: cell-based; details: Homo sapiens, 48 h
# MALME-3M = assay: NCI-60 SRB screen, melanoma; format: cell-based, human; details: Homo sapiens, 48 h
# NCI-H460 = assay: NCI-60 SRB screen, non-small cell lung cancer; format: cell-based, human; details: Homo sapiens
# NCI-H552 = assay: NCI-60 SRB screen, non-small cell lung cancer; format: cell-based, human; details: Homo sapiens, 48 h
# U251 = assay: NCI-60 SRB screen, CNS cancer; format: cell-based, human; details: Homo sapiens
# MDA-MB-435 = assay: NCI-60 SRB screen, melanoma; format: cell-based, human; details: Homo sapiens
# SNB-19 = assay: NCI-60 SRB screen, CNS cancer; format: cell-based, human; details: Homo sapiens
# CCRF-CEM = assay: NCI-60 SRB screen, leukemia; format: cell-based; details: Homo sapiens, 48 h
# OVCAR-5 = assay: NCI-60 SRB screen, ovarian cancer; format: cell-based, human; details: Homo sapiens
# [3] = HL-60(TB), five dose 0.01–100 µM, 48 h
# [4] = Homo sapiens, 60 cell, read-out: Mean GI50, mean over all NCI 60 cell lines
# [5] = read-out: Mean GI50, mean over all NCI 60 cell lines
# [6] = five dose 0.01–100 µM, read-out: GI50
structure (smiles),measurement,setting,value
"C=CCC1C(=O)N(c2cc(OC)c(OC)c(OC)c2)C1c1ccc(OC)c(O)c1 (stereo not shown) [10p, 4-(3-Hydroxy-4-methoxyphenyl)-1-(3,4,5-trimethoxyphenyl)-3-allylazetidin-2-one]",GI50,"SF295; SF-295, SF295, five dose 0.01–100 µM, 48 h, read-out: GI50",29.1 nM
same,GI50,HL-60(TB); [3],32.3 nM
same,GI50,"HL-60(TB); HL-60, NCI screen",< 34 nM
same,GI50,"TK-10; TK-10, five dose 0.01–100 µM, 48 h, read-out: GI50",80.2 nM
same,GI50,[1]; [4],< 91.2 nM
same,CC50,"[1]; Homo sapiens, 60 cell",93.3 µM
same,IC (TGI (total growth inhibition)),"[1]; Homo sapiens, 60 cell",35.5 µM
same,GI50,[1]; [5],61.7 nM
same,GI50,"MOLT-4; MOLT-4, five dose 0.01–100 µM, 48 h, read-out: GI50",40.8 nM
same,GI50,"T-47D; T-47D, five dose 0.01–100 µM, read-out: GI50",63.5 µM
same,GI50,"DU-145; DU-145, five dose 0.01–100 µM, 48 h, read-out: GI50",26.6 nM
same,GI50,NCI/ADR-RES; [6],20.6 nM
same,GI50,"SK-MEL-28; SK-MEL-28, five dose 0.01–100 µM, 48 h, read-out: GI50",76.2 µM
same,GI50,K-562; read-out: GI50,43.1 nM
same,GI50,"HS 578T; HS 578T, five dose 0.01–100 µM, read-out: GI50",51.7 nM
same,GI50,"SK-OV-3; SK-OV-3, five dose 0.01–100 µM, 48 h, read-out: GI50",36.6 nM
same,GI50,"RPMI-8226; RPMI-8226, five dose 0.01–100 µM, 48 h, read-out: GI50",40.6 nM
same,GI50,SR; [6],31.4 nM
same,GI50,"SF539; SF-539, SF539, five dose 0.01–100 µM, 48 h, read-out: GI50",38.2 nM
same,GI50,"MDA-MB-231/ATCC; MDA-MB-231/ATCC, five dose 0.01–100 µM, 48 h, read-out: GI50",24 nM
same,IC50,"MDA-MB-231/ATCC; MDA-MB-231, obtained from NCI, five concentrations 0.01–100 μM, 48 h",27.4 nM
same,GI50,SN12C; [6],29.8 nM
same,GI50,"NCI-H226; NCI-H226, five dose 0.01–100 µM, 48 h, read-out: GI50",56 nM
same,Fold Reduction in Vmax,[2],4.5
same,GI50,NCI-H332M; [6],51.2 nM
same,GI50,"MALME-3M; MALME-3M, five dose 0.01–100 µM, read-out: GI50",30.6 nM
same,GI50,"NCI-H460; NCI-H460, five dose 0.01–100 µM, 48 h, read-out: GI50",32 nM
same,GI50,"NCI-H552; NCI-H552, five dose 0.01–100 µM, read-out: GI50",15.1 nM
same,GI50,"U251; U-251, U251, five dose 0.01–100 µM, 48 h, read-out: GI50",31.7 nM
same,GI50,"MDA-MB-435; MDA-MB-435, five dose 0.01–100 µM, 48 h, read-out: GI50",20.5 nM
same,GI50,"SNB-19; SNB-19, five dose 0.01–100 µM, 48 h, read-out: GI50",58.9 nM
same,GI50,CCRF-CEM; [6],36.1 nM
same,GI50,"OVCAR-5; OVCAR-5, five dose 0.01–100 µM, 48 h, read-out: GI50",61.8 nM
"C=CC=CC1C(=O)N(c2cc(OC)c(OC)c(OC)c2)C1c1ccc(OC)cc1 (stereo not shown) [11h, 3-(Buta-1,3-dienyl)-4-(4-methoxyphenyl)-1-(3,4,5-trimethoxyphenyl)azetidin-2-one]",GI50,"SF295; SF-295, 48 h",30.9 nM
same,GI50,HL-60(TB); [3],33.8 nM
same,GI50,"HL-60(TB); HL-60, NCI screen",< 34 nM
same,GI50,"TK-10; TK-10, 48 h",61.7 nM
same,GI50,[1]; [4],< 91.2 nM
same,CC50,"[1]; Homo sapiens, 60 cell",77.6 µM
same,IC (TGI (total growth inhibition)),"[1]; Homo sapiens, 60 cell",8.91 µM
same,GI50,[1]; [5],58.9 nM
same,GI50,"MOLT-4; MOLT-4, 48 h",36.9 nM
same,GI50,T-47D,56.2 µM
same,GI50,"DU-145; DU-145, 48 h",27 nM
same,GI50,NCI/ADR-RES,17.3 nM
same,GI50,"SK-MEL-28; SK-MEL-28, 48 h",16 µM
same,GI50,K-562,41 nM
same,GI50,HS 578T; Hs-578T,24.7 nM
same,GI50,"SK-OV-3; SK-OV-3, 48 h",37.3 nM
same,GI50,"RPMI-8226; RPMI-8226, 48 h",38.4 nM
same,GI50,SR,35.6 nM
same,GI50,"SF539; SF-539, 48 h",33.2 nM
same,GI50,"MDA-MB-231/ATCC; MDA-MB-231, 48 h",29.6 nM
same,IC50,"MDA-MB-231/ATCC; MDA-MB-231, 48 h",31.1 nM
same,GI50,SN12C,50.8 nM
same,GI50,"NCI-H226; NCI-H226, 48 h",76.8 nM
same,Vmax,"[2]; 37 °C, 340 nm",0.0035 mOD/min
same,Fold Reduction in Vmax,[2],2.9
same,GI50,NCI-H332M,62.6 nM
same,GI50,MALME-3M; Malme-3M,> 100000 nM
same,GI50,"NCI-H460; NCI-H460, 48 h",33.2 nM
same,GI50,NCI-H552,15.1 nM
same,GI50,"U251; U-251, 48 h",32.2 nM
same,GI50,"MDA-MB-435; MDA-MB-435, 48 h",19.1 nM
same,GI50,"SNB-19; SNB-19, 48 h",65.4 nM
same,GI50,CCRF-CEM,37.8 nM
same,GI50,"OVCAR-5; OVCAR-5, 48 h",94.8 nM

# Source: article PMC10385824, “Antiproliferative and Tubulin-Destabilising Effects of 3-(Prop-1-en-2-yl)azetidin-2-Ones and Related Compounds in MCF-7 and MDA-MB-231 Breast Cancer Cells” (Pharmaceuticals, 2023)
